# Assay results as given in patent publication US20250127863A1, “ANTIMICROBIAL PEPTIDE FOR ONYCHOMYCOSIS” (CBMR SCIENTIFIC NANOSCIENCE B.V., priority 2019, published 2025).
# Like-named read-outs stand apart in the source and are kept apart here. No end group written: not given here.
# What was measured:
# C. metapsilosis = assay: MIC90 growth inhibition; assay type: cell-based, Candida metapsilosis; conditions: RPMI 1640 one-fourth strength
# Protocol: (§1) The minimum inhibitory concentration (MIC) value is defined as the lowest sample concentration that inhibited growth. In the Examples, the MIC90 value is presented, which MIC90 values are determined according to established methods known to the person with the skills in the relevant art. Experiments; 1×10E5 CFU of various strains/ml were incubated for 24-48 h at 37° C. in 4× diluted medium of RPMI 1640 with the indicated concentrations of antimicrobial peptide hLF(1-11) [SEQ ID NO: 3]. As controls various strains cells were incubated for 24-48 h at 37° C. with no agent (antimicrobial peptide), and subsequently, growth of the microbial organism (e.g. yeast, bacterium) was monitored by using spectrophotometry with a spectrophotometer at 620 nm. […] ND=Not done. Representative single assay data are listed rather than a range, for clarity reasons and for ease of comparison of peptide efficacy. The MIC was calculated as the lowest antibiotic (antimicrobial peptide) concentration at which growth of the assessed yeast or bacterium (microbe) was inhibited (inhibitory concentration IC90).
# [1] = tested on: C. guilliermondii CBS-2030; assay: MIC90 growth inhibition; assay type: cell-based, Candida guilliermondii; conditions: RPMI 1640 one-fourth strength
# Protocol: as §1
# C. guilliermondii = assay: MIC90 growth inhibition; assay type: cell-based, Candida guilliermondii; conditions: RPMI 1640 one-fourth strength
# Protocol: as §1
# S. epidermidis Type 2163 = assay: MIC90 growth inhibition; assay type: cell-based, Staphylococcus epidermidis; conditions: RPMI 1640 one-fourth strength
# Protocol: as §1
# C. parapsilosis CBS #57 = assay: MIC90 growth inhibition; assay type: cell-based, Candida parapsilosis; conditions: RPMI 1640 one-fourth strength
# Protocol: as §1
# C. parapsilosis CBS #61 = assay: MIC90 growth inhibition; assay type: cell-based, Candida parapsilosis; conditions: RPMI 1640 one-fourth strength
# Protocol: as §1
# C. parapsilosis CBS-604 = assay: MIC90 growth inhibition; assay type: cell-based, Candida parapsilosis; conditions: RPMI 1640 one-fourth strength
# Protocol: as §1
# C. parapsilosis CBS #7 = assay: MIC90 growth inhibition; assay type: cell-based, Candida parapsilosis; conditions: RPMI 1640 one-fourth strength
# Protocol: as §1
# C. parapsilosis CMC-2039 = assay: MIC90 growth inhibition; assay type: cell-based, Candida parapsilosis; conditions: RPMI 1640 one-fourth strength
# Protocol: as §1
# C. lusitaniae CMC-1944 = assay: MIC90 growth inhibition; assay type: cell-based, Candida lusitaniae; conditions: RPMI 1640 one-fourth strength
# Protocol: as §1
# Candida parapsilosis = assay type: cell-based
# Protocol: as §1
# For 3 patients A, B, C who were treated with the low concentration of antimicrobial peptide, and for which now clinical improvement was established, it was established that one patient presented with a positive culture (Candida parapsilosis). […] See also Tables 1-3 in Example 4, here below. […]
# Hypercrealis spp. = assay type: cell-based; conditions: Hypercrealis spp. strain from nail samples of patients D, E
# Protocol: as §1
# (§2) For two patients D, E who were treated with a solution comprising the high concentration of the antimicrobial peptide, in their nail samples strains of Trichophyton interdigitalis and Hypercrealis spp. were determined. […]
# [2] = tested on: Trichophyton interdigitalis; assay type: cell-based
# Protocol: as §1, §2
# C. auris = assay: MIC90 growth inhibition; assay type: cell-based, Candida auris; conditions: RPMI 1640 one-fourth strength
# Protocol: as §1
# Sclerotium rolfsii = assay: IC50 growth inhibition; assay type: cell-based
# Phoma exigua = assay: IC50 growth inhibition; assay type: cell-based
# Hypercrealis spp = assay: MIC90 growth inhibition, organisms related to onychomycosis; assay type: cell-based; conditions: RPMI 1640 one-fourth strength
# Protocol: as §1
# [3] = tested on: Scopulariopsis breyicaulis; assay: as above; assay type: cell-based; conditions: RPMI 1640 one-fourth strength
# Protocol: as §1
# Candida albicans spp = assay: as above; assay type: cell-based; conditions: RPMI 1640 one-fourth strength
# Protocol: as §1
# Epidermophyton spp = assay: as above; assay type: cell-based; conditions: RPMI 1640 one-fourth strength
# Protocol: as §1
# Microsporum spp = assay: as above; assay type: cell-based; conditions: RPMI 1640 one-fourth strength
# Protocol: as §1
# Malassezia spp = assay: as above; assay type: cell-based; conditions: RPMI 1640 one-fourth strength
# Protocol: as §1
# [4] = tested on: Trichophyton interdigitalis; assay: as above; assay type: cell-based; conditions: RPMI 1640 one-fourth strength
# Protocol: as §1
# Trichophyton spp = assay: as above; assay type: cell-based; conditions: Trichophyton spp (Table 2); RPMI 1640 one-fourth strength
# Protocol: as §1
# onychomycosis = assay type: in vivo, human; conditions: for no results observed, number of patients: 3-5 months treatment of the fungal nail
# Protocol: The anti-fungal activity of the antimicrobial peptide hLF1-11 (GRRRRSVQWCA) [SEQ ID NO: 3] was tested in a clinical trial with human subjects who suffered from at least one nail apparently with onychomycosis.
# In the clinical trial a total of 53 patients with different (severe) clinical signs of onychomycosis were included.
# C. glabrata (LUMC) = assay: MIC90 growth inhibition; assay type: cell-based, Candida glabrata; conditions: RPMI 1640 one-fourth strength
# Protocol: as §1
# C. glabrata CMC-1933 = assay: MIC90 growth inhibition; assay type: cell-based, Candida glabrata; conditions: RPMI 1640 one-fourth strength
# Protocol: as §1
# C. glabrata CBS-138 = assay: MIC90 growth inhibition; assay type: cell-based, Candida glabrata; conditions: RPMI 1640 one-fourth strength
# Protocol: as §1
# C. glabrata spp. = assay: MIC90 growth inhibition; assay type: cell-based, Candida glabrata; conditions: RPMI 1640 one-fourth strength
# Protocol: as §1
sequence,measurement,setting,value
"GRRRRSVQWCA [hLF1-11, Gly Arg Arg Arg Arg Ser Val Gln Trp Cys Ala]",Inhibitory concentration MIC (MIC90),C. metapsilosis,MIC = 25 μg/mL
same,Inhibitory concentration MIC (MIC90),[1],MIC = 50 μg/ml
same,Inhibitory concentration MIC (MIC90),C. guilliermondii,MIC = 5-40 μg/ml
same,Inhibitory concentration MIC (MIC90),S. epidermidis Type 2163,MIC = 3.1 μg/ml
same,Inhibitory concentration MIC (MIC90),C. parapsilosis CBS #57,MIC = 25-50 μg/mL
same,Inhibitory concentration MIC (MIC90),C. parapsilosis CBS #61,MIC = 25-50 μg/mL
same,Inhibitory concentration MIC (MIC90),"C. parapsilosis CBS-604; C. parapsilosis CBS-604, second listing",MIC = 25 μg/ml
same,Inhibitory concentration MIC (MIC90),C. parapsilosis CBS-604,MIC = 25 μg/mL
same,Inhibitory concentration MIC (MIC90),C. parapsilosis CBS #7,MIC = 25-50 μg/mL
same,Inhibitory concentration MIC (MIC90),"C. parapsilosis CMC-2039; C. parapsilosis CMC-2039, second listing",MIC = 25 μg/ml
same,Inhibitory concentration MIC (MIC90),C. parapsilosis CMC-2039,MIC = 25 μg/mL
same,Inhibitory concentration MIC (MIC90),C. lusitaniae CMC-1944,MIC = 50 μg/mL
same,MIC90 value,Candida parapsilosis,25 to 50 µg/mL
same,MIC90 value,Hypercrealis spp.,50 µg/mL
same,MIC90 value,[2],50 µg/mL
same,Inhibitory concentration MIC (MIC90),C. auris,MIC = 12.5-25 μg/ml
same,Inhibitory concentration IC50,Sclerotium rolfsii,IC50 = 231 μg/mL
same,Inhibitory concentration IC50,Phoma exigua,IC50 = 821 μg/mL
same,Inhibitory concentration MIC (MIC90),Hypercrealis spp,MIC = 25-50 μg/mL
same,Inhibitory concentration MIC (MIC90),[3],MIC = 25-50 μg/mL
same,Inhibitory concentration MIC (MIC90),Candida albicans spp,MIC = 25-50 μg/mL
same,Inhibitory concentration MIC (MIC90),Epidermophyton spp,MIC = 25-50 μg/mL
same,Inhibitory concentration MIC (MIC90),Microsporum spp,MIC = 25-50 μg/mL
same,Inhibitory concentration MIC (MIC90),Malassezia spp,MIC = 12.5-50 μg/mL
same,Inhibitory concentration MIC (MIC90),[4],MIC = 25-50 μg/mL
same,Inhibitory concentration MIC (MIC90),Trichophyton spp,MIC = 6.3-50 μg/ml
same,"effect in patients D, E who had shown no effect at the high concentration","onychomycosis; 100 mg/L, after 3 months of treatment",positive effect
same,time after which improvement was observed for the patients,onychomycosis; High concentration solution (33.3 mg/L),3-6 months
same,"positive effect of the treatment observed, number of patients",onychomycosis; Low concentrate (3.3 mg/L antimicrobial peptide) in aqueous acetic acid 0.01 volume %,18 patients
same,time after which improvement was observed for the patients,onychomycosis; Low concentration solution (3.3 mg/L),4-7 months
same,"positive effect of the treatment observed, number of patients",onychomycosis; high concentrate (33.3 mg/L antimicrobial peptide) in aqueous acetic acid 0.01 volume %,22 patients
same,"no results observed, number of patients",onychomycosis; high concentration,2 patients
same,adverse side effects (patients' remarks),"onychomycosis; human, in vivo",No adverse side effects
same,"no results observed, number of patients",onychomycosis; low concentration,3 patients
same,positive effect of the nail treatment,"onychomycosis; panel of 53 patients, aqueous solution comprising the antimicrobial peptide",88.64%
same,patients with visual improvement of the nails,onychomycosis; patients in the clinical trial,more than 85%
same,positive result obtainable for all patients included in the clinical trial,onychomycosis; when the concentration of the antimicrobial peptide is 100 mg/L,100%
same,Inhibitory concentration MIC (MIC90),C. glabrata (LUMC),MIC = 25 μg/mL
same,Inhibitory concentration MIC (MIC90),C. glabrata CMC-1933,MIC = 25 μg/mL
same,Inhibitory concentration MIC (MIC90),C. glabrata CBS-138,MIC = 25 μg/mL
same,Inhibitory concentration MIC (MIC90),C. glabrata spp.,MIC = 25 μg/mL
